Reference: ChEMBL document CHEMBL5584320, “Pemuchiamides A and B, Proline-Rich Linear Lipopeptides, Isolated from a Marine Hormoscilla sp. Cyanobacterium” (J Nat Prod, 2024)

How the values were obtained:
HeLa = test: Growth inhibition of human HeLa cells assessed as reduction cell viability incubated for 72 hrs by MTT assay; format: functional, cell-based
HL-60 = test: Growth inhibition of human HL-60 cells assessed as reduction cell viability incubated for 72 hrs by MTT assay; format: functional, cell-based; details: HL-60, 72 h
[1] = test system: Trypanosoma brucei rhodesiense; test: Antitrypanosomal activity against blood stream form of Trypanosoma brucei rhodesiense IL-1501 assessed as growth inhibition incubated for 69 hrs by alamar blue staining based microplate fluorescence scanner analysis; format: functional, organism-based; details: IL-1501, 69 h

Row | IC50 (HeLa) | IC50 (HL-60) | IC50 [1] | Structure (SMILES)
1 | 2900 nM | 1400 nM | 630 nM | CC[C@H](C)[C@H](NC(=O)[C@@H]1CCCN1C(=O)[C@@H](CC(C)C)NC(=O)[C@H]1CSC([C@@H]2CCCN2C(=O)[C@@H]2CCCN2C(=O)[C@@H](Cc2ccccc2)N(C)C(=O)CNC(=O)[C@@H](NC(=O)CCCNC(=O)CCCc2ccc(O)cc2)C(C)C)=N1)C(=O)N[C@H](Cc1ccccc1)C(=O)N1CCC[C@H]1C(=O)OC
2 | 3900 nM | 2100 nM | 5400 nM | CC[C@H](C)[C@H](NC(=O)[C@@H]1CCCN1C(=O)[C@@H](CC(C)C)NC(=O)[C@H]1CSC([C@@H]2CCCN2C(=O)[C@@H]2CCCN2C(=O)[C@@H](Cc2ccccc2)N(C)C(=O)CNC(=O)[C@@H](NC(=O)C[C@H](O)CNC(=O)CCCc2ccc(O)cc2)C(C)C)=N1)C(=O)N[C@H](Cc1ccccc1)C(=O)N1CCC[C@H]1C(=O)OC
3 | – | – | 4 nM | N=C(N)c1ccc(OCCCCCOc2ccc(C(=N)N)cc2)cc1 [PENTAMIDINE]
4 | 290 nM | 11 nM | – | COc1cccc2c1C(=O)c1c(O)c3c(c(O)c1C2=O)C[C@@](O)(C(=O)CO)C[C@@H]3O[C@H]1C[C@H](N)[C@H](O)[C@H](C)O1 [DOXORUBICIN]
